Measured values from ChEMBL document CHEMBL3102801, “Synthesis and antiproliferative activity of new derivatives containing the polycyclic system 5,7:7,13-dimethanopyrazolo[3,4-b]pyrazolo[3',4':2,3]azepino[4,5-f]azocine” (Eur J Med Chem, 2014).
Active and inactive are the calls of the source. No cut-off for these calls is given here.

Experiments:
KM12 = test: Growth inhibition of human KM12 cells after 48 hrs by sulforhodamine B assay; type: functional; conditions: KM12, 48 h
HCT-15 = test: Growth inhibition of human HCT15 cells after 48 hrs by sulforhodamine B assay; type: functional; conditions: HCT-15, 48 h
COLO 205 = test: Growth inhibition of human COLO205 cells after 48 hrs by sulforhodamine B assay; type: functional; conditions: COLO 205, 48 h
[1] = Growth inhibition of human HCC2998 cells after 48 hrs by sulforhodamine B assay; type: functional; conditions: HCC 2998, 48 h
[2] = Growth inhibition of human HOP92 cells after 48 hrs by sulforhodamine B assay; type: functional; conditions: HOP-92, 48 h
HOP-62 = test: Growth inhibition of human HOP62 cells after 48 hrs by sulforhodamine B assay; type: functional; conditions: HOP-62, 48 h
SR = test: Growth inhibition of human SR cells after 48 hrs by sulforhodamine B assay; type: functional
RPMI-8226 = test: Growth inhibition of human RPMI8226 cells after 48 hrs by sulforhodamine B assay; type: functional; conditions: RPMI-8226, 48 h
HL-60(TB) = test: Growth inhibition of human HL-60(TB) cells after 48 hrs by sulforhodamine B assay; type: functional; conditions: HL-60, 48 h
[3] = target: T1, Retinoblastoma-associated protein (Homo sapiens) (UniProt P06400); test: Inhibition of pRb p110 phosphorylation in human HCT116 cells at 5 to 10 uM after 48 hrs by Western blotting relative to unphosphorylated p105; type: cell-based; conditions: HCT-116
T1 sequence (whole entry): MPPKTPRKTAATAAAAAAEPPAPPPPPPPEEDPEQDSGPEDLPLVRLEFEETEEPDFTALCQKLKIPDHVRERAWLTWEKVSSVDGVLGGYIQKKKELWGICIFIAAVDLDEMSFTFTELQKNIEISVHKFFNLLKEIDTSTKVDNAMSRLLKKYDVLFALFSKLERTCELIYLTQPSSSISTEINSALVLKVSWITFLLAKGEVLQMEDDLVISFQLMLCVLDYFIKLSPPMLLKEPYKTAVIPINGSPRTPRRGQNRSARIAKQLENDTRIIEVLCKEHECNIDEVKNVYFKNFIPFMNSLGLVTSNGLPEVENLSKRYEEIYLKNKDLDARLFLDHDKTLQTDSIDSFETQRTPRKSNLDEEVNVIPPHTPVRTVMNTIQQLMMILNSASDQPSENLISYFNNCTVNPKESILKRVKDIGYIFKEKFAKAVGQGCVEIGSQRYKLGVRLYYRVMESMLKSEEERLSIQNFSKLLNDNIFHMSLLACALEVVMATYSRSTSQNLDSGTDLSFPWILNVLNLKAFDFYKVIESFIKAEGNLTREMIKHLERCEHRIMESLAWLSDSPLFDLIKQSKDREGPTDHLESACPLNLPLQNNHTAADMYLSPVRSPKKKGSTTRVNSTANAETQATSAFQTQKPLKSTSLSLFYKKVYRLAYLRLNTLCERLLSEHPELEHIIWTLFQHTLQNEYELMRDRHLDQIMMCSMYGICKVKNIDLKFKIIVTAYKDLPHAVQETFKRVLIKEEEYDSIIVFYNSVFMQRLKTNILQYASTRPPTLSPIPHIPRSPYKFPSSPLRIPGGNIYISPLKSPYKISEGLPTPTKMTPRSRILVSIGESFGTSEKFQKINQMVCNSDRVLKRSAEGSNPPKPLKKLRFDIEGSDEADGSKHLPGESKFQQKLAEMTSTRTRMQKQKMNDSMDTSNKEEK

[4] = target: T1, Retinoblastoma-associated protein (Homo sapiens); test: Inhibition of pRb p110 phosphorylation in human MDA-MB-231 cells at 5 to 10 uM after 48 hrs by Western blotting relative to unphosphorylated p105; type: cell-based
HCT-116 = test: Cell cycle arrest in human HCT116 cells assessed as accumulation of sub-G0-G1 phase at 5 uM after 48 hrs using propidium iodide staining by flow cytometric analysis (reference value: 15.2%); type: functional
MDA-MB-231 [5] = test: Cell cycle arrest in human MDA-MB-231 cells assessed as accumulation of G2-M phase at 10 uM after 48 hrs using propidium iodide staining by flow cytometric analysis (reference value: 27.5%); type: functional
MDA-MB-231 [6] = test: Cell cycle arrest in human MDA-MB-231 cells assessed as accumulation of G2-M phase at 5 uM after 48 hrs using propidium iodide staining by flow cytometric analysis (reference value: 27.5%); type: functional
[7] = Therapeutic index, ratio of IC50 for human HeDe cells to IC50 for human MDA-MB-231 cells; type: cell-based; conditions: HeDe cells versus MDA-MB-231 cells, read-out: TI
T47D = test: Growth inhibition of human T47D cells after 48 hrs by sulforhodamine B assay; type: functional
BT-549 = test: Growth inhibition of human BT549 cells after 48 hrs by sulforhodamine B assay; type: functional; conditions: BT-549, 48 h
MCF7 = test: Growth inhibition of human MCF7 cells after 48 hrs by sulforhodamine B assay; type: functional; conditions: MCF7, 48 h
CAKI-1 = test: Growth inhibition of human CAKI-1 cells after 48 hrs by sulforhodamine B assay; type: functional; conditions: CAKI-1, 48 h
786-0 = test: Growth inhibition of human 786-0 cells after 48 hrs by sulforhodamine B assay; type: functional; conditions: 786-0, 48 h
[8] = target: T1, Retinoblastoma-associated protein (Homo sapiens); test: Inhibition of pRb p110 phosphorylation in human HCT116 cells after 48 hrs by Western blotting; type: cell-based; conditions: HCT-116
OVCAR-8 = test: Growth inhibition of human OVCAR8 cells after 48 hrs by sulforhodamine B assay; type: functional; conditions: OVCAR-8, 48 h
[9] = Growth inhibition of human OVCAR4 cells after 48 hrs by sulforhodamine B assay; type: functional; conditions: OVCAR-4, 48 h
OVCAR-3 = test: Growth inhibition of human OVCAR3 cells after 48 hrs by sulforhodamine B assay; type: functional; conditions: OVCAR-3, 48 h
[10] = Growth inhibition of human UACC257 cells after 48 hrs by sulforhodamine B assay; type: functional; conditions: UACC-257, 48 h
SK-MEL-5 = test: Growth inhibition of human SK-MEL-5 cells after 48 hrs by sulforhodamine B assay; type: functional; conditions: SK-MEL-5, 48 h
SK-MEL-2 = test: Growth inhibition of human SK-MEL-2 cells after 48 hrs by sulforhodamine B assay; type: functional; conditions: SK-MEL-2, 48 h
MDA-MB-435 = test: Growth inhibition of human MDA-MB-435 cells after 48 hrs by sulforhodamine B assay; type: functional; conditions: MDA-MB-435, 48 h
M14 = test: Growth inhibition of human M14 cells after 48 hrs by sulforhodamine B assay; type: functional; conditions: M14, 48 h
U-251 = test: Growth inhibition of human U251 cells after 48 hrs by sulforhodamine B assay; type: functional; conditions: U-251, 48 h
SF-268 = test: Growth inhibition of human SF268 cells after 48 hrs by sulforhodamine B assay; type: functional; conditions: SF-268, 48 h
SW-620 = test: Growth inhibition of human SW620 cells after 48 hrs by sulforhodamine B assay; type: functional; conditions: SW-620, 48 h

With C=C1c2c(C)nn(-c3ccc(OC)cc3)c2N(C)C23CC1C1(C)c4c(C)nn(-c5ccc(OC)cc5)c4N(C)C(C)(CC12)C3 (configuration not stated) the GI50 (KM12) was 3.75 µM, the GI50 (HCT-15) was 3.11 µM and the GI50 (COLO 205) was 2.2 µM. For the same compound, the GI50 [1] was 4.07 µM, the GI50 [2] was 1.18 µM and the GI50 (HOP-62) was 4.28 µM. For the same compound, the GI50 (SR) was 3.16 µM, the GI50 (RPMI-8226) was 1.87 µM and the GI50 (HL-60(TB)) was 2.54 µM. The inhibition [3] was “Active”, the inhibition [4] was “Active” and the Activity (HCT-116) was 14.3%. It also gave an Activity (MDA-MB-231 [5]) of 17.8%, an Activity (MDA-MB-231 [6]) of 18.6% and a selectivity ratio [7] of 24.4. For the same compound, the GI50 (T47D) was 1.81 µM, the GI50 (BT-549) was 3.1 µM and the GI50 (MCF7) was 2.69 µM. For the same compound, the GI50 (CAKI-1) was 2.67 µM, the GI50 (786-0) was 4.23 µM and the inhibition [8] was “Dose-dependent effect”. For the same compound, the GI50 (OVCAR-8) was 3.4 µM, the GI50 [9] was 3.56 µM and the GI50 (OVCAR-3) was 3.27 µM. It also gave a GI50 [10] of 2.68 µM, a GI50 (SK-MEL-5) of 1.73 µM and a GI50 (SK-MEL-2) of 3.23 µM. The GI50 (MDA-MB-435) was 3.4 µM, the GI50 (M14) was 3.88 µM and the GI50 (U-251) was 2.67 µM. The GI50 (SF-268) was 3.63 µM and the GI50 (SW-620) was 3.63 µM.
